Measurements as given in patent US6953677B2, “Recombinant L-N-carbamoylase from Arthrobacter aurescens and method of producing L-amino acids therewith” (Degussa AG, priority 1998, dated 2005).
Changes are numbered by the printed parent chain. Read-outs that look alike come from different tables or passages of the source.

B1: rec-L-N-carbamoylase from A.a. (Paenarthrobacter aurescens) (protein)
chain: MTLQKAQAERIEKEIRELSRFSAEGPGVTRLTYTPEHAAARETLIAAMKAAALSVREDALGNIIGRREGTDPELPAIAVGSHFDSVRNGGMFDGTAGVVCALEAARVMLENGYVNRHPFEFIAIVEEEGARFSSGMLGGRAIAGLVADRELDSLVDEDGVSVRQAATAFGLKPGELQAAARSAADLRAFIELHIEQGPILEQEQIEIGVVTSIVGVRALRVAVKGRSDHAGTTPMHLRQDALVPAALMVREVNRFVNEIADGTVATVGHLTVAPGGGNQVPGEVDFTLDLRSPHEESLRVLIDRISVMVGEVASQAGVAADVDEFFNLSPVQLAPTMVDAVREAASALQFTHRDISSGAGHDSMFIAQVTDVGMVFVPSRAGRSHVPEEWTDFDDLRKGTEVVLRVMKALDR
B2: rec-carbamoylase: recombinant L-N-carbamoylase from Arthrobacter aurescens (hyuC gene, SEQ ID NO:2) expressed in E. coli (protein, listed as Arthrobacter aurescens)
chain: B1 chain with E9A

Legend:
[1] = target: rec-L-N-carbamoylase from A.a. (Paenarthrobacter aurescens, UniProt Q9F464); format: biochemical, Arthrobacter aurescens; conditions: pH 8.5, homogeneously purified enzyme
Procedure: (§1) The substrate specificity of the carbamoylase was investigated with homogeneously purified enzyme. The latter was obtained after cell maceration and ion exchange chromatography on Streamline-DEAE- and MonoQ media. A solution of the particular substrate was produced in a concentration of 1.8 mM (exception N-carbamoyl-L-methionine: 50 mM) in 0.1 M TRIS-HCl, pH 8.5 and used instead of the standard substrate in the standard activity test. Instead of the trichloroacetic acid (TCA) used in the standard test for stopping, in the case of the substrates N-formyl-D,L-tryptophane, N-carbamoyl-L-thienylalanine and N-acetyl-D,L-tryptophane heat denaturation was used to terminate the reaction (incubation for 10 min in a boiling water bath) and in the case of the substrate N-carbamoyl-D,L-phenylalanine, addition of 900 μl methanol to 100 μl assay solution was used. The concentration of the amino acid was subsequently determined either by HPLC or colorimetrically after reaction with ninhydrin.
(§2) 5 ml of a cell culture induced with rhamnose are centrifuged at 3000 rpm for 5 min in a Heraeus Megafuge, washed with 5 ml buffer (200 mM TRIS-HCl, pH 7.0), re-centrifuged, taken up in 1 ml buffer (200 mM TRIS-HCl, 0.1 mM MnCl2 pH 7.0) and macerated by ultrasound (Ultrasonics Sonicator, microtip, 2×30 sec, duty cycle 50%). Cell fragments are removed by centrifugation in an Eppendorf centrifuge at 13000 rpm, 10 min. The supernatant, designated as raw extract, is used for the enzyme measurement. 100 μl raw extract or cleaned-up enzyme is mixed with 800 μl 2 mM N-carbamoyl amino acid preheated to 37° C. in 100 mM TRIS-HCl, pH 8.5 and incubated 10 min at 37° C. The reaction is stopped by the addition of 400 μl trichloroacetic acid. The precipitated protein is separated by centrifugation in an Eppendorf centrifuge at 13000 rpm for 10 min. The supernatant is subsequently measured in an HPLC or calorimetrically (ninhydrin). The separation of the reaction mixture takes place in an HPLC with an RP-18 column, the mobile solvent is 0.3% (V/V) phosphoric acid, 80% methanol, flow rate 1.0 ml/min. The detection takes place by measuring the UV absorption at a wavelength of 280 nm.

[2] = substrate: NC(=O)N[C@@H](Cc1c[nH]c2ccccc12)C(=O)O; test: purified protein, by the assay type; format: biochemical, Arthrobacter aurescens; conditions: other: homogeneously purified enzyme, 0.1 M TRIS-HCl, pH 8.5, 37.0 °C
Procedure: as §1, §2

[3] = substrate: NC(=O)N[C@@H](Cc1cccs1)C(=O)O; test: purified protein, by the assay type; format: biochemical, Arthrobacter aurescens; conditions: other: homogeneously purified enzyme, 0.1 M TRIS-HCl, pH 8.5, 37.0 °C
Procedure: as §1, §2

[4] = substrate: NC(=O)NC(Cc1ccccc1)C(=O)O; test: purified protein, by the assay type; format: biochemical, Arthrobacter aurescens; conditions: other: homogeneously purified enzyme, 0.1 M TRIS-HCl, pH 8.5, 37.0 °C
Procedure: as §1, §2

[5] = substrate: O=CNC(Cc1c[nH]c2ccccc12)C(=O)O; test: purified protein, by the assay type; format: biochemical, Arthrobacter aurescens; conditions: other: homogeneously purified enzyme, 0.1 M TRIS-HCl, pH 8.5, 37.0 °C
Procedure: as §1, §2

[6] = substrate: NC(=O)N[C@@H](Cc1ccc(O)cc1)C(=O)O; test: purified protein, by the assay type; format: biochemical, Arthrobacter aurescens; conditions: other: homogeneously purified enzyme, 0.1 M TRIS-HCl, pH 8.5, 37.0 °C
Procedure: as §1, §2

[7] = N-L-carbamoylase activity of raw extract of rhamnose-induced E. coli JM109/pAW178-2; format: biochemical, Arthrobacter aurescens; conditions: 9 h after rhamnose induction, approximately maximum; N-carbamoyl-L-tryptophane as substrate
Procedure: 1 ml of an overnight culture of E. coli JM109/pAW178-2 (FIG. 1) in LBamp is added into 100 ml fresh LBamp medium in a one-liter Erlenmeyer flask and the latter incubated at 30° C. in a water bath under agitation (200 rpm). 1 ml of a 20% rhamnose solution is added to the culture at an optical density of the culture of 0.5 (measured at a wavelength of 600 nm in a photometer) (end concentration […]) and the culture incubated further. After a further 9 h incubation approximately the maximum of the N-L-carbamoylase activity is achieved, a specific activity of 1.8 units/mg raw extract, measured with N-carbamoyl-L-tryptophane as substrate. No activity was found in cultures which had not been induced with rhamnose.
5 ml of a cell culture induced with rhamnose are centrifuged at 3000 rpm for 5 min in a Heraeus Megafuge, washed with 5 ml buffer (200 mM TRIS-HCl, pH 7.0), re-centrifuged, taken up in 1 ml buffer (200 mM TRIS-HCl, 0.1 mM MnCl2 pH 7.0) and macerated by ultrasound (Ultrasonics Sonicator, microtip, 2×30 sec, duty cycle 50%). Cell fragments are removed by centrifugation in an Eppendorf centrifuge at 13000 rpm, 10 min. The supernatant, designated as raw extract, is used for the enzyme measurement. […] The supernatant is subsequently measured in an HPLC or calorimetrically (ninhydrin). […]

[8] = Temperature stability of the rec-L-N-carbamoylase (storage, then standard activity test); format: physicochemical, Arthrobacter aurescens
Procedure: FIG. 2: Standard activity assay of the isolated recombinant Arthrobacter aurescens N-L-carbamoylase enzyme isolated from E.coli. The N-L-carbamoylase was isolated after cell maceration and ion exchange chromatography on Streamline DEAE and MonoQ media. N-L-carbamoylase activity was determined by reacting with the substrate N-carbamoyl-L-tryptophane over 100 hours wherein the concentration of the amino acid tryptophan was determined in order to calculate N-L carbamoylase activity. The N-L-carbamoylase enzyme activity was measured and reached a relative activity level of around 100% between hours 40 and […] of incubation 37° C.
[…] The standard test for determination of activity was carried out at time intervals of 1-100 h.
as §2

[9] = substrate 1.8 mM in 0.1 M TRIS-HCl, n.n. = can not be detected

| Molecule | Activity % [1, 9] | further results |
| --- | --- | --- |
| NC(=O)NC(Cc1ccccc1)C(=O)O (racemic) [N-carbamoyl-D,L-phenylalanine] | 97% | – |
| N=C(N)NCCC[C@H](NC(N)=O)C(=O)O [N-carbamoyl-L-arginine] | n.n. | – |
| NC(=O)N[C@@H](Cc1cccs1)C(=O)O [N-carbamoyl-L-thienylalanine] | 314% | – |
| NC(=O)N[C@H](C(=O)O)c1ccccc1 [N-carbamoyl-L-phenylglycine] | n.n. | – |
| NC(=O)N[C@@H](Cc1ccc(O)cc1)C(=O)O [N-carbamoyl-L-tyrosine] | 126% | – |
| O=CNC(Cc1c[nH]c2ccccc12)C(=O)O (racemic) [N-formyl-D-L-tryptophane] | 97% | – |
| O=CN[C@@H](CC(=O)O)C(=O)O [N-formyl-L-aspartate] | n.n. | – |
| NC(=O)NC(CC(=O)O)C(=O)O (racemic) [N-carbamoyl-D,L-aspartate] | n.n. | – |
| NC(=O)N[C@H](Cc1c[nH]c2ccccc12)C(=O)O [N-carbamoyl-D-tryptophane] | n.n. | – |
| NC(=O)N[C@H](Cc1ccccc1)C(=O)O [N-carbamoyl-D-phenylalanine] | n.n. | – |
| NC(=O)N[C@@H](Cc1c[nH]c2ccccc12)C(=O)O [N-carbamoyl-L-tryptophane] | 100% | – |
| NC(=O)N[C@@H](CCC(=O)O)C(=O)O [N-carbamoyl-L-glutamate] | n.n. | – |
| NC(=O)NCCC(=O)O [N-carbamoyl-β-alanine] | n.n. | – |
| NC(=O)N[C@@H](C(=O)O)c1ccccc1 [N-carbamoyl-D-phenylglycine] | n.n. | – |
| CC(=O)NC(Cc1c[nH]c2ccccc12)C(=O)O (racemic) [N-acetyl-D,L-tryptophane] | n.n. | – |
| CSCC[C@H](NC(N)=O)C(=O)O [N-carbamoyl-L-methionine] | – | Activity % ([1]; substrate 50 mM (exception) in 0.1 M TRIS-HCl): 17% |
| B1 | – | Km [2]: 0.12 MM; Km [3]: 2.3 MM; Km [4]: 0.7 MM; Km [5]: 8.5 MM; Km [6]: 0.3 MM |
| B2 | – | specific activity [7]: 1.8 units/mg raw extract; activity on storage at 37° C. ([8]; 37° C., 100 h, homogeneously purified recombinant enzyme): almost unchanged; duration of activity at 50° C. ([8]; 50° C.): hours; relative activity level ([8]; between hours 40 and 140 of incubation 37° C., substrate N-carbamoyl-L-tryptophane (FIG. 2)): around 100% |
